Reference: ChEMBL document CHEMBL1150654, “New marine diterpenoids from the Okinawan soft coral Clavularia koellikeri” (J Nat Prod, 2002)
In brackets after ≈: the same amount, converted by molar mass.

How the values were obtained:
Assay type in all cases: functional, cell-based
[1] = Cytotoxicity against human HBC4 cells after 48 hrs by sulforhodamine B assay; details: HBC4, 48 h
[2] = Cytotoxicity against human BSY1 cells after 48 hrs by sulforhodamine B assay; details: BSY-1, 48 h
[3] = Cytotoxicity against human HBC5 cells after 48 hrs by sulforhodamine B assay; details: HBC5, 48 h
[4] = test system: MCF7; assay: Cytotoxicity against human MCF7 cells after 48 hrs by sulforhodamine B assay; details: MCF7, 48 h
[5] = test system: MDA-MB-231; assay: Cytotoxicity against human MDA-MB-231 cells after 48 hrs by sulforhodamine B assay; details: MDA-MB-231, 48 h
[6] = test system: NCI-H23; assay: Cytotoxicity against human NCI-H23 cells after 48 hrs by sulforhodamine B assay; details: NCI-H23, 48 h
[7] = test system: NCI-H226; assay: Cytotoxicity against human NCI-H226 cells after 48 hrs by sulforhodamine B assay; details: NCI-H226, 48 h
[8] = test system: NCI-H522; assay: Cytotoxicity against human NCI-H522 cells after 48 hrs by sulforhodamine B assay; details: NCI-H522, 48 h
[9] = test system: NCI-H460; assay: Cytotoxicity against human NCI-H460 cells after 48 hrs by sulforhodamine B assay; details: NCI-H460, 48 h
[10] = test system: A549; assay: Cytotoxicity against human A549 cells after 48 hrs by sulforhodamine B assay; details: A549, 48 h
[11] = test system: DMS-273; assay: Cytotoxicity against human DMS273 cells after 48 hrs by sulforhodamine B assay; details: DMS-273, 48 h
[12] = test system: DMS-114; assay: Cytotoxicity against human DMS114 cells after 48 hrs by sulforhodamine B assay; details: DMS-114, 48 h
[13] = test system: LOX IMVI; assay: Cytotoxicity against human LOXIMVI cells after 48 hrs by sulforhodamine B assay
[14] = test system: St-4; assay: Cytotoxicity against human St-4 cells after 48 hrs by sulforhodamine B assay; details: St-4, 48 h
[15] = Cytotoxicity against human MKN1 cells after 48 hrs by sulforhodamine B assay; details: MKN-1, 48 h
[16] = test system: MKN-7; assay: Cytotoxicity against human MKN7 cells after 48 hrs by sulforhodamine B assay; details: MKN-7, 48 h
[17] = test system: MKN-28; assay: Cytotoxicity against human MKN28 cells after 48 hrs by sulforhodamine B assay; details: MKN-28, 48 h
[18] = test system: MKN-45; assay: Cytotoxicity against human MKN45 cells after 48 hrs by sulforhodamine B assay; details: MKN-45, 48 h
[19] = test system: MKN-74; assay: Cytotoxicity against human MKN74 cells after 48 hrs by sulforhodamine B assay; details: MKN-74, 48 h
[20] = test system: HCC 2998; assay: Cytotoxicity against human HCC2998 cells after 48 hrs by sulforhodamine B assay; details: HCC 2998, 48 h
[21] = test system: KM12; assay: Cytotoxicity against human KM12 cells after 48 hrs by sulforhodamine B assay; details: KM12, 48 h
[22] = test system: HT-29; assay: Cytotoxicity against human HT-29 cells after 48 hrs by sulforhodamine B assay; details: HT-29, 48 h
[23] = test system: HCT-15; assay: Cytotoxicity against human HCT15 cells after 48 hrs by sulforhodamine B assay; details: HCT-15, 48 h
[24] = test system: HCT-116; assay: Cytotoxicity against human HCT116 cells after 48 hrs by sulforhodamine B assay; details: HCT-116, 48 h
[25] = Cytotoxicity against human RXF631L cells after 48 hrs by sulforhodamine B assay; details: RXF 631, 48 h
[26] = test system: ACHN; assay: Cytotoxicity against human ACHN cells after 48 hrs by sulforhodamine B assay
[27] = test system: OVCAR-3; assay: Cytotoxicity against human OVCAR-3 cells after 48 hrs by sulforhodamine B assay; details: OVCAR-3, 48 h
[28] = test system: OVCAR-4; assay: Cytotoxicity against human OVCAR4 cells after 48 hrs by sulforhodamine B assay; details: OVCAR-4, 48 h
[29] = test system: OVCAR-5; assay: Cytotoxicity against human OVCAR5 cells after 48 hrs by sulforhodamine B assay; details: OVCAR-5, 48 h
[30] = test system: OVCAR-8; assay: Cytotoxicity against human OVCAR8 cells after 48 hrs by sulforhodamine B assay; details: OVCAR-8, 48 h
[31] = test system: SK-OV-3; assay: Cytotoxicity against human SKOV3 cells after 48 hrs by sulforhodamine B assay; details: SK-OV-3, 48 h
[32] = test system: U-251; assay: Cytotoxicity against human U251 cells after 48 hrs by sulforhodamine B assay; details: U-251, 48 h
[33] = test system: SF-268; assay: Cytotoxicity against human SF268 cells after 48 hrs by sulforhodamine B assay; details: SF-268, 48 h
[34] = test system: SF-295; assay: Cytotoxicity against human SF295 cells after 48 hrs by sulforhodamine B assay; details: SF-295, 48 h
[35] = test system: SF-539; assay: Cytotoxicity against human SF539 cells after 48 hrs by sulforhodamine B assay; details: SF-539, 48 h
[36] = test system: SNB-75; assay: Cytotoxicity against human SNB75 cells after 48 hrs by sulforhodamine B assay; details: SNB-75, 48 h
[37] = test system: SNB-78; assay: Cytotoxicity against human SNB78 cells after 48 hrs by sulforhodamine B assay; details: SNB-78, 48 h
[38] = test system: DU-145; assay: Cytotoxicity against human DU145 cells after 48 hrs by sulforhodamine B assay; details: DU-145, 48 h
[39] = test system: PC-3; assay: Cytotoxicity against human PC3 cells after 48 hrs by sulforhodamine B assay; details: PC-3, 48 h

With C=C1C(=O)O[C@H]2/C=C(\C)CC/C=C(\C)CC/C=C(\C)CC[C@H]12 as the compound, how does the IC50 [1] read?
Its IC50 is 1.62 µg/mL (≈ 5.39 µM).

And the IC50 [2]?
The IC50 was 1.35 µg/mL (≈ 4.49 µM).

What about the IC50 [3] of the same compound?
The IC50 was 2.13 µg/mL (≈ 7.09 µM).

What about the IC50 [4] of the same compound?
The IC50 was 0.9 µg/mL (≈ 3 µM).

And the IC50 [5]?
The IC50 was 4.5 µg/mL (≈ 15 µM).

What about the IC50 [6] of the same compound?
Its IC50 is 3.6 µg/mL (≈ 12 µM).

What about the IC50 [7] of the same compound?
The IC50 was 1.14 µg/mL (≈ 3.79 µM).

What about the IC50 [8] of the same compound?
The IC50 was 0.66 µg/mL (≈ 2.2 µM).

And the IC50 [9]?
The IC50 was 3.3 µg/mL (≈ 11 µM).

What about the IC50 [10] of the same compound?
Its IC50 is 1.26 µg/mL (≈ 4.19 µM).

What about the IC50 [11] of the same compound?
Its IC50 is 1.11 µg/mL (≈ 3.69 µM).

And the IC50 [12]?
Its IC50 is 3.6 µg/mL (≈ 12 µM).

And the IC50 [13]?
Its IC50 is 0.72 µg/mL (≈ 2.4 µM).

And the IC50 [14]?
Its IC50 is 3.9 µg/mL (≈ 13 µM).

And the IC50 [15]?
The IC50 was 1.2 µg/mL (≈ 3.99 µM).

And the IC50 [16]?
The IC50 was 0.96 µg/mL (≈ 3.2 µM).

And the IC50 [17]?
The IC50 was 0.96 µg/mL (≈ 3.2 µM).

And the IC50 [18]?
Its IC50 is 3 µg/mL (≈ 9.99 µM).

And the IC50 [19]?
The IC50 was 0.81 µg/mL (≈ 2.7 µM).

What about the IC50 [20] of the same compound?
The IC50 was 1.29 µg/mL (≈ 4.29 µM).

What about the IC50 [21] of the same compound?
The IC50 was 1.32 µg/mL (≈ 4.39 µM).

And the IC50 [22]?
Its IC50 is 1.47 µg/mL (≈ 4.89 µM).

What about the IC50 [23] of the same compound?
Its IC50 is 2.01 µg/mL (≈ 6.69 µM).

And the IC50 [24]?
Its IC50 is 1.17 µg/mL (≈ 3.89 µM).

What about the IC50 [25] of the same compound?
The IC50 was 4.8 µg/mL (≈ 16 µM).

And the IC50 [26]?
The IC50 was 3 µg/mL (≈ 9.99 µM).

And the IC50 [27]?
The IC50 was 1.14 µg/mL (≈ 3.79 µM).

And the IC50 [28]?
Its IC50 is 2.25 µg/mL (≈ 7.49 µM).

What about the IC50 [29] of the same compound?
Its IC50 is 2.31 µg/mL (≈ 7.69 µM).

What about the IC50 [30] of the same compound?
The IC50 was 0.93 µg/mL (≈ 3.1 µM).

What about the IC50 [31] of the same compound?
Its IC50 is 6.6 µg/mL (≈ 22 µM).

What about the IC50 [32] of the same compound?
Its IC50 is 4.2 µg/mL (≈ 14 µM).

What about the IC50 [33] of the same compound?
Its IC50 is 3 µg/mL (≈ 9.99 µM).

What about the IC50 [34] of the same compound?
The IC50 was 3.9 µg/mL (≈ 13 µM).

What about the IC50 [35] of the same compound?
Its IC50 is 1.56 µg/mL (≈ 5.19 µM).

And the IC50 [36]?
Its IC50 is 3.3 µg/mL (≈ 11 µM).

And the IC50 [37]?
The IC50 was 1.59 µg/mL (≈ 5.29 µM).

And the IC50 [38]?
Its IC50 is 3.3 µg/mL (≈ 11 µM).

And the IC50 [39]?
Its IC50 is 1.11 µg/mL (≈ 3.69 µM).
